Data taken from US5831000A, “Hybrid calcitonin” (Chugai Seiyaku Kabushiki Kaisha, priority 1990, dated 1998).
“And” between values parts separate entries of the source, which are not always exact repeats. Equal values may be shown once. Read-outs that look alike come from different tables or passages of the source. Positions of bridges follow the written chain, without caps; N, C: chain ends. Residues, ends and D or L forms follow the SMILES beside them.

Legend:
[1] = tested on: Female beagles; conditions: dog, in vivo
Protocol: (§1) One hour later, enteric aspirin tablets (containing 200 mg of the active ingredient) were administered orally together with 25 ml of water. Thereafter, blood samples were taken from the other cephalic vein at given time intervals, and the plasma obtained in the usual manner was stored at -20° C. until measurement.
(§2) As it passes through the intestinal wall, most of the ingested aspirin is metabolized and enters the blood stream as salicylic acid. […] Ethanol (200 μl) was added to 50 μl of plasma and the mixture was centrifuged at 10,000 rpm×1 min, with the resulting supernatant being subjected to HPLC.
(§3) The difference between the time from calcitonin administration to the absorption of aspirin and the time from physiological saline administration to the absorption of aspirin was calculated for each animal to determine the delay in gastric emptying time.

[2] = tested on: hypercalcemic rats; experiment: Efficacy of calcitonins against hypercalcemia (vitamin D3 hypercalcemic rats); assay type: in vivo, rat; conditions: 4 IU/kg subcutaneously, FIG. 1
Protocol: Vitamin D3 (5 mg/kg) was administered orally to 5-wk old SD male rats for 4 consecutive days to construct experimental models of hypercalcemic rats. […] Blood was sampled at given time intervals and the concentration of calcium in plasma was measured.

[3] = tested on: Female beagles; experiment: Effects of calcitonins on gastric emptying time (enteric aspirin absorption); conditions: for Delay time (difference in time to aspirin absorption between calcitonin and physiological saline) / Lag time (time from aspirin administration to its absorption): individual animals
Protocol: as §1, §2, §3

[4] = tested on: Rats; experiment: Effects of calcitonins on the inhibition of body weight gain and appetite; conditions: intramuscular, 12.5, 50 and 200 IU/kg, 24 h later
Protocol: Each of the calcitonins was administered in three different doses: 12.5 IU/kg, 50 IU/kg and 200 IU/kg. For the body weight changes, the measured values were averaged for 5 rats, and for the food consumption, the measured values for 5 rats were added together.

[5] = tested on: conscious dog; experiment: Effects of calcitonins on gastrointestinal motility (IMC) in conscious dog; assay type: in vivo, beagle dog; conditions: for effect on the IMC / gastrointestinal motility: i.v., conscious dog, summary of Table 10
Text: A healthy beagle dog weighing about 10 kg was anesthetized with an i.v. injection of pentobarbital sodium and the abdominal cavity was opened under aseptic conditions.
Extraluminal force transducers were sutured onto the serosa of the gastric antrum stomach, duodenum and jejunum to measure circular muscle contraction, as reported previously (Itoh et al. Gastroenterol Jpn. 12, 275 1977).
The lead wires of these transducers were out of the abdominal cavity and then brought out through a skin incision made between the scapulae.
After the abdominal surgery, a 5-cm longitudinal skin incision was made in the right Frontal neck to expose the external jugular vein.
After the operation, a jacket protector was placed on the dog to protect the lead wires and the Silastic tube.
The dog was housed in individual experimental cage, and given commercial dog food at 5:00 P.M. and water was given freely.
The gastrointestinal motor activity was recorded on a thermal pen writing recorder (WR-3101, Graphtic, Tokyo, Japan) by connecting the lead wires of the transducers to the connecting cables from the amplifiers (UG-5, Nihon Kohden, Tokyo, Japan).
About two weeks postoperation, gastrointestinal contractile activity could be divided into two main patterns of activity, the interdigestive and digestive states.
In the interdigestive state, IMC (interdigestive migrating motor complex) were seen to occur at regular intervals of 100 to 120 min. in the gastric antrum, and migrated through the duodenum and jejunum at a constant velocity.
In all animals, feeding disrupted the regular IMC pattern. Experiments were carried out during interdigestive state. The drug was dissolved into 0.9% saline and administered through the indwelling Silastic tube for about 10 seconds in a volume of 0.3 ml/kg.
15 Min after the end of the IMC in the gastric antrum, which were subsequently flushed in with 0.9% saline.
The time until the next IMC is occurred from administration of the drug was measured, and used as a index for inhibitory activity of the drug on gastrointestinal motility.

[6] = tested on: anti-salmon calcitonin human sera; experiment: Cross reaction between anti-salmon calcitonin human antibody and hybrid calcitonin (competition with 125I labelled salmon calcitonin); assay type: binding; conditions: anti-salmon calcitonin human sera Nos. 1-4, FIG. 5
Protocol: Salmon calcitonin was synthesized by an ordinary procedure of solid-phase synthesis. Salmon calcitonin labelled with ^125 I was prepared by the Tejedor method (Tejedor, F. and Ballesta, J. P. G.; Analytical Biochemistry, 127, 143-149 (1982)).
Four types of human sera that had been verified to contain antibody after administration of salmon calcitonin were furnished from Dr. Frederick R. Singer (CEDERS-SINAI MEDICAL CENTER). The antibody titres of those sera against salmon calcitonin were as follows:
A 0.1M borate buffer solution (pH 8.0) containing 0.5% BSA, 0.9% NaCl, 0.1% NaN3 and 0.05% Tween 20 was used as a reaction buffer. This reaction buffer, anti-salmon calcitonin human serum (diluted with the reaction buffer to a final dilution of 100-6,400) and a solution of labelled calcitonin were charged into an assist tube (Spitz type of Salschted Inc. measuring 12×75 mm) in the respective volumes shown below, stirred thoroughly, and left to stand overnight at room temperature.
The reaction solution was mixed well with 500 μl of 0.2% BGG (bovine γ-globulin, Sigma), further mixed with 1 ml of 25% PEG #6000, stirred thoroughly and thereafter left to stand at room temperature for 15 min. […] After removing the supernatant by aspiration, the radioactivity level of the residue was measured with a gamma-counter. […]

| SMILES | action in delaying the gastric emptying time [1] | effect on elevated blood (plasma) calcium concentration [2] | action in delaying the gastric emptying time ([3]; beagles, summary of Table 9) | Delay time (difference in time to aspirin absorption between calcitonin and physiological saline) ([3]; dose 6 μg (1.2 IU)/kg i.v.) | Lag time (time from aspirin administration to its absorption) ([3]; dose 6 μg (1.2 IU)/kg i.v.) | Delay time (difference in time to aspirin absorption between calcitonin and physiological saline) ([3]; dose 100 μg (20.0 IU)/kg i.v.) | Lag time (time from aspirin administration to its absorption) ([3]; dose 100 μg (20.0 IU)/kg i.v.) | body weight change (inhibition of body weight gain) ([4]; FIG. 3) | food consumption (appetite) ([4]; FIG. 4) | effect on the IMC / gastrointestinal motility [5] | dose at which competition with 125I labelled salmon calcitonin started [6] | delay of the occurrence of the next IMC ([5]; dose of 3 μg/kg i.v.) |
| --- | --- | --- | --- | --- | --- | --- | --- | --- | --- | --- | --- | --- |
| CSCC[C@H](NC(=O)[C@@H]1CSSC[C@H](N)C(=O)NCC(=O)N[C@@H](CC(N)=O)C(=O)N[C@@H](CC(C)C)C(=O)N[C@@H](CO)C(=O)N[C@@H]([C@@H](C)O)C(=O)N1)C(=O)N[C@@H](CC(C)C)C(=O)NCC(=O)N[C@H](C(=O)N[C@@H](Cc1ccc(O)cc1)C(=O)N[C@H](C(=O)N[C@@H](CCC(N)=O)C(=O)N[C@@H](CC(=O)O)C(=O)N[C@@H](Cc1ccccc1)C(=O)N[C@@H](Cc1c[nH]cn1)C(=O)N[C@@H](CCCCN)C(=O)N[C@@H](CC(C)C)C(=O)N[C@@H](CCC(N)=O)C(=O)N[C@H](C(=O)N[C@@H](Cc1ccc(O)cc1)C(=O)N1CCC[C@H]1C(=O)N[C@@H](CCCNC(=N)N)C(=O)N[C@H](C(=O)N[C@@H](CC(N)=O)C(=O)N[C@H](C(=O)NCC(=O)N[C@@H](CO)C(=O)NCC(=O)N[C@H](C(=O)N1CCC[C@H]1C(N)=O)[C@@H](C)O)[C@@H](C)O)[C@@H](C)O)[C@@H](C)O)[C@@H](C)O)[C@@H](C)O [Example 1, (1-16) human/(17-32) salmon hybrid calcitonin] (H-CGNLSTCMLGTYTQDFHKLQTYPRTNTGSGTP-NH2; disulfide 1-7) | more similar to human calcitonin than salmon calcitonin in delaying to gastric emptying time | – | – | – | – | – | – | – | – | – | – | – |
| CC[C@H](C)[C@H](NC(=O)[C@H](C)NC(=O)[C@@H](NC(=O)[C@H](CCC(N)=O)NC(=O)[C@@H]1CCCN1C(=O)[C@H](Cc1ccccc1)NC(=O)[C@@H](NC(=O)[C@H](Cc1c[nH]cn1)NC(=O)[C@H](Cc1ccccc1)NC(=O)[C@H](CCCCN)NC(=O)[C@H](CC(N)=O)NC(=O)[C@H](Cc1ccccc1)NC(=O)[C@H](CC(=O)O)NC(=O)[C@H](CCC(N)=O)NC(=O)[C@@H](NC(=O)[C@H](Cc1ccc(O)cc1)NC(=O)[C@@H](NC(=O)CNC(=O)[C@H](CC(C)C)NC(=O)[C@H](CCSC)NC(=O)[C@@H]1CSSC[C@H](N)C(=O)NCC(=O)N[C@@H](CC(N)=O)C(=O)N[C@@H](CC(C)C)C(=O)N[C@@H](CO)C(=O)N[C@@H]([C@@H](C)O)C(=O)N1)[C@@H](C)O)[C@@H](C)O)[C@@H](C)O)[C@@H](C)O)C(=O)NCC(=O)N[C@H](C(=O)NCC(=O)N[C@@H](C)C(=O)N1CCC[C@H]1C(N)=O)C(C)C [human calcitonin] | – | caused rapid reduction in the elevated blood calcium concentration | weak in such action | 1.3 h and 2.6 h and 2.9 h | 3.0 h and 3.9 h and 4.0 h | 4.4 h and 5.0 h | 5.0 h and 6.9 h | no differences | no differences | only a slight effect on the IMC | – | – |
| CC(C)C[C@H](NC(=O)[C@H](CCCCN)NC(=O)CNC(=O)[C@H](CC(C)C)NC(=O)[C@@H](NC(=O)[C@@H]1CSSC[C@H](N)C(=O)N[C@@H](CO)C(=O)N[C@@H](CC(N)=O)C(=O)N[C@@H](CC(C)C)C(=O)N[C@@H](CO)C(=O)N[C@@H]([C@@H](C)O)C(=O)N1)C(C)C)C(=O)N[C@@H](CO)C(=O)N[C@@H](CCC(N)=O)C(=O)N[C@@H](CCC(=O)O)C(=O)N[C@@H](CC(C)C)C(=O)N[C@@H](Cc1c[nH]cn1)C(=O)N[C@@H](CCCCN)C(=O)N[C@@H](CC(C)C)C(=O)N[C@@H](CCC(N)=O)C(=O)N[C@H](C(=O)N[C@@H](Cc1ccc(O)cc1)C(=O)N1CCC[C@H]1C(=O)N[C@@H](CCCNC(=N)N)C(=O)N[C@H](C(=O)N[C@@H](CC(N)=O)C(=O)N[C@H](C(=O)NCC(=O)N[C@@H](CO)C(=O)NCC(=O)N[C@H](C(=O)N1CCC[C@H]1C(N)=O)[C@@H](C)O)[C@@H](C)O)[C@@H](C)O)[C@@H](C)O [salmon calcitonin] | very strong action in delaying the gastric emptying time | caused rapid reduction in the elevated blood calcium concentration | – | – | – | – | – | – | – | does-dependently inhibited the occurrence of the next IMC | at least 1 ng/ml | 3 days |
